Results: publication PMC3272276 (The Journal of Organic Chemistry, 2010)

Test system: Candida albicans
Assay: Antifungal activity
Assay type: cell-based

## theonellamide A
  inhibition of growth of Candida albicans (in words): antifungal activity of the extracts was traced to the known peptide theonellamide A

## mutremdamide A
  inhibition of growth of Candida albicans (in words): None of the koshikamides or mutremdamide A inhibited the growth
